Measurements taken from PMC9948161 (ACS Omega, 2023).

Assays:
[1] = tested on: MCF-7 breast cancer cell line; assay: MTT in vitro antiproliferative assay; assay type: cell-based; details: Homo sapiens, MCF7, 24 h, read-out: IC50 on the human MCF-7 cell line
MCF-7 cells [2] = assay: Wound healing; assay type: cell-based, human; details: MCF-7, IC50 concentration
MCF-7 cells [3] = assay: Cell cycle analysis by propidium iodide flow cytometry; assay type: cell-based, human; details: MCF-7, 1.29 μM, 24 h; untreated control 2.4
[4] = tested on: human red blood cell (HRBC) membrane; assay: HRBC membrane stabilization assay; assay type: cell-based; details: Erythrocyte, read-out: percentage of inhibition of hemolysis (HRBC membrane stabilization)
VEGFR2 kinase = VEGFR2 kinase (Homo sapiens, UniProt P35968); assay: biochemical
Sequence of VEGFR2 kinase (P35968 20-1356): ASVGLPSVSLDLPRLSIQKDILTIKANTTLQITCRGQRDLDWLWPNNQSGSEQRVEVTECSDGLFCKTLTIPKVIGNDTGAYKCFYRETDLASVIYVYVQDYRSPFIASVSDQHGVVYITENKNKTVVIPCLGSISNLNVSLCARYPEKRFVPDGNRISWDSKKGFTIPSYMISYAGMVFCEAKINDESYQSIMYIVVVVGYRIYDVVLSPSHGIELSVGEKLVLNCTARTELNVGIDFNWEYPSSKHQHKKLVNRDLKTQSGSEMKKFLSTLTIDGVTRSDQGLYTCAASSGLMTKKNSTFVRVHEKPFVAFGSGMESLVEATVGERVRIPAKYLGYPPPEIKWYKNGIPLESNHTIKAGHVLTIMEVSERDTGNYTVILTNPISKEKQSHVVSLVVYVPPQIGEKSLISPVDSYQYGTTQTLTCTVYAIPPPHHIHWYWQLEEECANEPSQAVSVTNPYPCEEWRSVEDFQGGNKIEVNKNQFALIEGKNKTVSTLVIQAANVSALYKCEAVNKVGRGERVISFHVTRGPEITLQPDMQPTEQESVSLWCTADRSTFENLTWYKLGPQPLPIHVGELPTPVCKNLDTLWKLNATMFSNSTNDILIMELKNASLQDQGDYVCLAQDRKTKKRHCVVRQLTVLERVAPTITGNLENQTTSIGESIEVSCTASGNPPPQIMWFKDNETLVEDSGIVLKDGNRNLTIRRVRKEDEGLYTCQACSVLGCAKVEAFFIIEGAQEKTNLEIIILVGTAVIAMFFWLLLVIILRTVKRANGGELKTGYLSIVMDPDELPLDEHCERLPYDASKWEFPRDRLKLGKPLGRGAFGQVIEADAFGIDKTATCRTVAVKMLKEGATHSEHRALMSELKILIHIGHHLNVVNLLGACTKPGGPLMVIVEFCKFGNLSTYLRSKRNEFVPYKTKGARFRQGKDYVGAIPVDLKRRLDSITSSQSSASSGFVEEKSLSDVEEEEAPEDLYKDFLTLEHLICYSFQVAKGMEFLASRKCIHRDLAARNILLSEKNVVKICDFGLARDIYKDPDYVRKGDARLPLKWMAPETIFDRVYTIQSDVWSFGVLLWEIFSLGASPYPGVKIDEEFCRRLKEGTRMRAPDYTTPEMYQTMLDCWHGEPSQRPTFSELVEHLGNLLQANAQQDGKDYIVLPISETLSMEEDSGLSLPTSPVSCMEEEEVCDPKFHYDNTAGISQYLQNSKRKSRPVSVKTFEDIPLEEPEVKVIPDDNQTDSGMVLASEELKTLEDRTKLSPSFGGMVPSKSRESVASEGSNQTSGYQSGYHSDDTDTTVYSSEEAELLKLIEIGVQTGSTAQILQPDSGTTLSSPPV

Row | IC50 [1] | IC50 (VEGFR2 kinase) | Structure (SMILES) | also measured
1 | 7.79 µM |  | O=c1[nH]cc(F)c(=O)[nH]1 [5-fluorouracil, reference compound] | 
2 | 1.29 µM |  | O=C(CC1Sc2ccccc2NC1=O)c1ccc(Cl)cc1 (stereo not shown) [Compound 2c, 2-(2-(4-Chlorophenyl)-2-oxoethyl)-2H-benzo[b] [1, 4]thiazin-3(4H)-one] | wound healing percentage (percentage wound healing area) at 0 h (MCF-7 cells [2]; 0 h, control 66.42 ± 1.20): 66.63 ± 0.66%; reduction in the area of the wound (percentage wound healing area) after 24 h (MCF-7 cells [2]; 24 h, control 43.23 ± 1.71): 61.98 ± 1.44%; population of cells at G2/M phase (MCF-7 cells [3]): 1%; inhibition at 125 µg/mL [4]: 31.6%; inhibition at 250 µg/mL [4]: 49.8%; inhibition at 500 µg/mL [4]: 75.4%
3 | 3.31 µM |  | CCOC(=O)CN1C(=O)C(CC(=O)c2ccc(Br)cc2)Sc2ccccc21 (stereo not shown) [Compound 3d, Ethyl 2-(2-(2-(4-Bromophenyl)-2-oxoethyl)-3-oxo-2H-benzo[b][1,4]thiazin-4(3H)-yl)acetate] | 
4 | 3.7 µM | 97.2 nM | Cc1ccc(C(=O)CC2Sc3ccccc3NC2=O)cc1Cl (stereo not shown) [Compound 2f, 2-(2-(3-Chloro-4-methylphenyl)-2-oxoethyl)-2H-benzo[b][1,4]thiazin-3(4H)-one] | 
5 | 4.98 µM | 135 nM | O=C(CC1Sc2ccccc2NC1=O)c1ccc(Cl)c(Cl)c1 (stereo not shown) [Compound 2e, 2-(2-(3,4-Dichlorophenyl)-2-oxoethyl)-2H-benzo[b][1,4]thiazin-3(4H)-one] | 
6 | 2.26 µM | 74.1 nM | O=C(CC1Sc2ccccc2NC1=O)c1ccc(F)cc1 (stereo not shown) [Compound 2a, 2-(2-(4-Fluorophenyl)-2-oxoethyl)-2H-benzo[b][1,4]thiazin-3(4H)-one] | 
7 | 5.19 µM | 632 nM | CCOC(=O)CN1C(=O)C(CC(=O)c2ccc(F)cc2)Sc2ccccc21 (stereo not shown) [Compound 3a, Ethyl 2-(2-(2-(4-Fluorophenyl)-2-oxoethyl)-3-oxo-2H-benzo[b][1,4]thiazin-4(3H)-yl)acetate] | 
8 | 2.3 µM |  | O=C(CC1Sc2ccccc2NC1=O)c1ccc(Br)cc1 (stereo not shown) [Compound 2d, 2-(2-(4-Bromophenyl)-2-oxoethyl)-2H-benzo[b][1,4]thiazin-3(4H)-one] | 
9 | 4.39 µM |  | CCOC(=O)CN1C(=O)C(CC(=O)c2ccc(Cl)cc2)Sc2ccccc21 (stereo not shown) [Compound 3c, Ethyl 2-(2-(2-(4-Chlorophenyl)-2-oxoethyl)-3-oxo-2H-benzo[b][1,4]thiazin-4(3H)-yl)acetate] | inhibition at 125 µg/mL [4]: 27.4%; inhibition at 500 µg/mL [4]: 53.6%
10 | 4.5 µM | 236 nM | CCOC(=O)CN1C(=O)C(CC(=O)c2ccc(F)c(F)c2)Sc2ccccc21 (stereo not shown) [Compound 3b, Ethyl 2-(2-(2-(3,4-Difluorophenyl)-2-oxoethyl)-3-oxo-2H-benzo [b][1,4]thiazin-4 (3H)-yl)acetate] | 
11 | 1.37 µM | 59.3 nM | O=C(CC1Sc2ccccc2NC1=O)c1ccc(F)c(F)c1 (stereo not shown) [Compound 2b, 2-(2-(3,4-Difluorophenyl)-2-oxoethyl)-2H-benzo[b][1,4]thiazin-3(4H)-one] | 
